# Results reported in US11767310B2, “Nicotinamide RIPK1 inhibitors” (AbbVie Inc., priority 2021, dated 2023).
# Like-named read-outs stand apart in the source and are kept apart here.
# Experiments:
# Assay in all cases: Kinase binding screen
# Settings in all cases: read-out: Percent Control at 100 nM Compound Concentration
# [1] = molecular target: PDGFRB (Homo sapiens (Human), UniProt P09619)
# [2] = molecular target: GRK2 (Homo sapiens (Human), UniProt P25098)
# [3] = molecular target: AURKA (Homo sapiens (Human), UniProt O14965)
# [4] = molecular target: MLK2 (Homo sapiens (Human), UniProt Q02779)
# [5] = molecular target: ERN1 (Homo sapiens (Human), UniProt O75460)
# [6] = molecular target: KIT(D816H) (Homo sapiens (Human), UniProt P10721, D816H)
# [7] = molecular target: GRK4 (Homo sapiens (Human), UniProt P32298)
# [8] = molecular target: CDK2 (Homo sapiens (Human), UniProt P24941)
# [9] = molecular target: YANK2 (Homo sapiens (Human), UniProt Q9NY57)
# [10] = molecular target: ROCK2 (Homo sapiens (Human), UniProt O75116)
# [11] = molecular target: LZK (Homo sapiens (Human), UniProt O43283)
# [12] = molecular target: MLK3 (Homo sapiens (Human), UniProt Q16584)
# [13] = molecular target: LATS1 (Homo sapiens (Human), UniProt O95835)
# [14] = molecular target: MRCKB (Homo sapiens (Human), UniProt Q9Y5S2)
# [15] = molecular target: TNIK (Homo sapiens (Human), UniProt Q9UKE5)
# [16] = molecular target: TXK (Homo sapiens (Human), UniProt P42681)
# [17] = molecular target: ADCK4 (Homo sapiens (Human), UniProt Q96D53)
# [18] = molecular target: RIOK2 (Homo sapiens (Human), UniProt Q9BVS4)
# [19] = molecular target: MAP4K5 (Homo sapiens (Human), UniProt Q9Y4K4)
# [20] = molecular target: PCTK1 (Homo sapiens (Human), UniProt Q00536)
# [21] = molecular target: HASPIN (Homo sapiens (Human), UniProt Q8TF76)
# [22] = molecular target: EGFR(L858R,T790M) (Homo sapiens (Human), UniProt P00533, L858R/T790M)
# [23] = molecular target: ANKK1 (Homo sapiens (Human), UniProt Q8NFD2)
# [24] = molecular target: NIK (Homo sapiens (Human), UniProt Q99558)
# [25] = molecular target: SNARK (Homo sapiens (Human), UniProt Q9H093)
# [26] = molecular target: MAPKAPK2 (Homo sapiens (Human), UniProt P49137)
# [27] = molecular target: SRPK1 (Homo sapiens (Human), UniProt Q96SB4)
# [28] = molecular target: YES (Homo sapiens (Human), UniProt P07947)
# [29] = molecular target: MAP3K2 (Homo sapiens (Human), UniProt Q9Y2U5)
# Chain of SNARK (Q9H093 whole entry): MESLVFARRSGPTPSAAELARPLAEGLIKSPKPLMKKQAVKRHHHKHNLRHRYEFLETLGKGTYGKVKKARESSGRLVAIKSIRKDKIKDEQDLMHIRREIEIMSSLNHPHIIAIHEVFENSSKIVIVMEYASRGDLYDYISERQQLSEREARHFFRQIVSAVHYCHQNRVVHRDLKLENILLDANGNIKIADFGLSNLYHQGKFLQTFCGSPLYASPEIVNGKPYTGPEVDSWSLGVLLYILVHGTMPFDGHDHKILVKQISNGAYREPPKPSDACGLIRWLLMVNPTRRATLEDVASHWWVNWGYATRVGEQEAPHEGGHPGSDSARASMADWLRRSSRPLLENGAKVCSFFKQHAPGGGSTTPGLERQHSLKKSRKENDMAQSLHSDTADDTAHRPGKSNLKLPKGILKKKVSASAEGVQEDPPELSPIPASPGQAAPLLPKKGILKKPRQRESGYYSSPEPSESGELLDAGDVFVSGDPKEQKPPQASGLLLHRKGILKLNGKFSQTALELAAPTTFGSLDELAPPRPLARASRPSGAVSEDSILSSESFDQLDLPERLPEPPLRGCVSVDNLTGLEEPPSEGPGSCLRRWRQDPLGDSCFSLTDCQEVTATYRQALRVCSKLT
# Chain of RIOK2 (Q9BVS4 whole entry): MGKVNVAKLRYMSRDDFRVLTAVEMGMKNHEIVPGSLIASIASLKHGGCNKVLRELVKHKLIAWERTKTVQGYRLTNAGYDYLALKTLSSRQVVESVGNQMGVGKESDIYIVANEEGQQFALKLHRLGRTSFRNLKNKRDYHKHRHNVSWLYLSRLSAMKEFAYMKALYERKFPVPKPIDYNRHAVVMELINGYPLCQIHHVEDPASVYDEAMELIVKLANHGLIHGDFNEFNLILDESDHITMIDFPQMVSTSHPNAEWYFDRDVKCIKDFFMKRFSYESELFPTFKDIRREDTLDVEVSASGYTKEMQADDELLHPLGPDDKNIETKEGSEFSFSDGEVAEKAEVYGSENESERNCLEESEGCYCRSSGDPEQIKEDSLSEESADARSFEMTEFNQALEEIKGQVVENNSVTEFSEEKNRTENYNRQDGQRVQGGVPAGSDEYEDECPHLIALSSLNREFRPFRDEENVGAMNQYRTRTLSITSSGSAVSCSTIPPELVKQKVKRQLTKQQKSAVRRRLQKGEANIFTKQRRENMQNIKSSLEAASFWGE
# Chain of PDGFRB (P09619 33-1106): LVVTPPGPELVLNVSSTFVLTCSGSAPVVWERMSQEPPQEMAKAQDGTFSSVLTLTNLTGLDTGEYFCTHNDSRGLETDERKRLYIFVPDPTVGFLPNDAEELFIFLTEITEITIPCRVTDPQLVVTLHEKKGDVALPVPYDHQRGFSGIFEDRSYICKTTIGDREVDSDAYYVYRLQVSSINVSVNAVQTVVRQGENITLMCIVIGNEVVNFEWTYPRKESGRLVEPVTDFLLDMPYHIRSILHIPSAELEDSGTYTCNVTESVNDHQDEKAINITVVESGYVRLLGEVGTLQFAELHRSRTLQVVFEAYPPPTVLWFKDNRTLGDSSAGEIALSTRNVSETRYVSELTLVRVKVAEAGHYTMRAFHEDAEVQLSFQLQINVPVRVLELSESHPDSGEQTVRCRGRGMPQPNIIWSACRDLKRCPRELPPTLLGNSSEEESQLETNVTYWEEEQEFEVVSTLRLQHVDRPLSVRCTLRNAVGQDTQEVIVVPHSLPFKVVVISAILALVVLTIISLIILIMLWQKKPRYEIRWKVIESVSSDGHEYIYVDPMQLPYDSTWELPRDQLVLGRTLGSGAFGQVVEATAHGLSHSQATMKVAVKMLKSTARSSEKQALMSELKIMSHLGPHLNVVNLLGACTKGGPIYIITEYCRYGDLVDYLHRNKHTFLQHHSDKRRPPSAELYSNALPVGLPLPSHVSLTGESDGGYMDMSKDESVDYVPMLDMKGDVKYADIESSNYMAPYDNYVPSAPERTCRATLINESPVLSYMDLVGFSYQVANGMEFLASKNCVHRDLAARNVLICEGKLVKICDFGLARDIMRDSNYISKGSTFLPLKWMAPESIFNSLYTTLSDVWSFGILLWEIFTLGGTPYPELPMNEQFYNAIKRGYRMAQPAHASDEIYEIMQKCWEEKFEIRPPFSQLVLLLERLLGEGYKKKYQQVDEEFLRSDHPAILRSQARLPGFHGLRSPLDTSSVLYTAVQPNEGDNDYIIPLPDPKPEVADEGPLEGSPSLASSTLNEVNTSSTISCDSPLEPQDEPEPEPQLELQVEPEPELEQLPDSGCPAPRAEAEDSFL
# Chain of NIK (Q99558 whole entry): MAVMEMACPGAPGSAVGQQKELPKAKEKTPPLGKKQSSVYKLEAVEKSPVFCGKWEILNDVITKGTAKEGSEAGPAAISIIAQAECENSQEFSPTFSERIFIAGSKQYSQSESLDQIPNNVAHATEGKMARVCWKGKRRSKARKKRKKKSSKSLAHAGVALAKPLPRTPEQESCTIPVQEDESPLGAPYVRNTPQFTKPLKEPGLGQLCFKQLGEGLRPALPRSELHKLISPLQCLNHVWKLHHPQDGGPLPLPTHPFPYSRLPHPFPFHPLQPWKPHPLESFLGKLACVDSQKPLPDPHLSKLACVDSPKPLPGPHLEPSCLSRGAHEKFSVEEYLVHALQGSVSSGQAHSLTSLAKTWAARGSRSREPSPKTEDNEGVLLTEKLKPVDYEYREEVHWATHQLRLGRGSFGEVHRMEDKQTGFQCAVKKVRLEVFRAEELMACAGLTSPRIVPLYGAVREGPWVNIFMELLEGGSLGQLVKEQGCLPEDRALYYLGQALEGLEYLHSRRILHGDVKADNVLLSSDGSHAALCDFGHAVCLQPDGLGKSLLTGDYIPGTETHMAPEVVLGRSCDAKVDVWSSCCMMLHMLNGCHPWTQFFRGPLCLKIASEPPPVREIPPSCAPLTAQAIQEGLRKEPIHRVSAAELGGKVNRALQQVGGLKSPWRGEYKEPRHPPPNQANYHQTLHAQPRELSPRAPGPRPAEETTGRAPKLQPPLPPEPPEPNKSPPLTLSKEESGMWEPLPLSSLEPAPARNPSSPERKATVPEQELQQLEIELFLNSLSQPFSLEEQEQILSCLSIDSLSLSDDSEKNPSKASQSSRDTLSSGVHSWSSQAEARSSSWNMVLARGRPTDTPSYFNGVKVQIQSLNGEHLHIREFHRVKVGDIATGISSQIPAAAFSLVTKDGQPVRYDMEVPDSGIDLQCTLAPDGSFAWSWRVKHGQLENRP
# Chain of ANKK1 (Q8NFD2 whole entry): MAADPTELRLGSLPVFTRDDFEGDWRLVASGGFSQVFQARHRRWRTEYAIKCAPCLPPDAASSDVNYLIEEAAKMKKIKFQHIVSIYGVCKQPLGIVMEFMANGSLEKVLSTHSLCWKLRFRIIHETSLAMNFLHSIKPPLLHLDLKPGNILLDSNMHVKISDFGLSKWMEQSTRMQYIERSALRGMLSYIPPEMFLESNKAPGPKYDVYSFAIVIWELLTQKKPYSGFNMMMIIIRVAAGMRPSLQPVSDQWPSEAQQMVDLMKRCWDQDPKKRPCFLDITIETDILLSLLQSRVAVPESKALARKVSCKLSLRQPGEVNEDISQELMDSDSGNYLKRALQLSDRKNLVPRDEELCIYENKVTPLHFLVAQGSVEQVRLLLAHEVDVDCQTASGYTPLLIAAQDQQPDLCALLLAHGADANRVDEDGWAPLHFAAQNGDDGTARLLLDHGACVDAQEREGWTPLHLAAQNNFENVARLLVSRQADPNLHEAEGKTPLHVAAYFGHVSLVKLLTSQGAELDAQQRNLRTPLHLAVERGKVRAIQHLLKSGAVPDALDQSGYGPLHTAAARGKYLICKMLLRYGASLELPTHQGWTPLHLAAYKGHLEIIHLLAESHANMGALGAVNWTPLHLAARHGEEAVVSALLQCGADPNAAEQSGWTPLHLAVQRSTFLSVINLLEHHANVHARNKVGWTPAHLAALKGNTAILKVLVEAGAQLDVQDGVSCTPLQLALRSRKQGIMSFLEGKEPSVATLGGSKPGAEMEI
# Chain of MAP4K5 (Q9Y4K4 whole entry): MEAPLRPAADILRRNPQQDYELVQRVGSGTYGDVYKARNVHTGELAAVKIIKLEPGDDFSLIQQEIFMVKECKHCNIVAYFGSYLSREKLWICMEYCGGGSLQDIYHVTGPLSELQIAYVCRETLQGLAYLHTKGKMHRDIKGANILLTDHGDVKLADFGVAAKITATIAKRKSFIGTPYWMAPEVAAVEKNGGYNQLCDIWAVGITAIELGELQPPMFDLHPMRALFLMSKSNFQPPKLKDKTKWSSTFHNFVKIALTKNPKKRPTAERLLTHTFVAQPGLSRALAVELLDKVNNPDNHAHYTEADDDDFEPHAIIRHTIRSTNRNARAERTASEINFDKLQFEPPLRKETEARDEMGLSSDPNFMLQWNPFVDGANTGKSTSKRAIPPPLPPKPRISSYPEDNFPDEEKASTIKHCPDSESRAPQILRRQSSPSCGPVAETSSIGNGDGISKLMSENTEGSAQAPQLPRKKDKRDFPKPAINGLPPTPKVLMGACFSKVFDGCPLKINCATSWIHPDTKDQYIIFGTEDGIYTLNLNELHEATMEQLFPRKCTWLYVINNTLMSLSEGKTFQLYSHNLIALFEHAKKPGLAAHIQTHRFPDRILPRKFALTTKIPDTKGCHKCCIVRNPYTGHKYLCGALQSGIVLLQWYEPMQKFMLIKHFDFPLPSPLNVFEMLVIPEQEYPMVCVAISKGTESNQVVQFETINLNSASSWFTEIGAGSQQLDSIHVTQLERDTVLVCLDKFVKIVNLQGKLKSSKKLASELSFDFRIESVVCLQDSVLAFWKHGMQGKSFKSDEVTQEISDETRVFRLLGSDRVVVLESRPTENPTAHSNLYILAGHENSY
compound,measurement,setting,value
"CN(C[C@H](Cc1ccccc1)OP(=O)(O)O)C(=O)c1cncc(C#Cc2cnn(C(F)F)c2)c1 [Example 19, (S)-1-(5-((1-(difluoromethyl)-1H-pyrazol-4-yl)ethynyl)-N-methylnicotinamido)-3-phenylpropan-2-yl dihydrogen phosphate]",remaining activity at 0.1 µM,[1],100%
same,remaining activity at 0.1 µM,[2],79%
same,remaining activity at 0.1 µM,[3],100%
same,remaining activity at 0.1 µM,[4],69%
same,remaining activity at 0.1 µM,[5],93%
same,remaining activity at 0.1 µM,[6],98%
same,remaining activity at 0.1 µM,[7],100%
same,remaining activity at 0.1 µM,[8],100%
same,remaining activity at 0.1 µM,[9],95%
same,remaining activity at 0.1 µM,[10],100%
same,remaining activity at 0.1 µM,[11],99%
same,remaining activity at 0.1 µM,[12],89%
same,remaining activity at 0.1 µM,[13],88%
same,remaining activity at 0.1 µM,[14],100%
same,remaining activity at 0.1 µM,[15],100%
same,remaining activity at 0.1 µM,[16],100%
same,remaining activity at 0.1 µM,[17],100%
same,remaining activity at 0.1 µM,[18],95%
same,remaining activity at 0.1 µM,[19],95%
same,remaining activity at 0.1 µM,[20],84%
same,remaining activity at 0.1 µM,[21],83%
same,remaining activity at 0.1 µM,[22],94%
same,remaining activity at 0.1 µM,[23],100%
same,remaining activity at 0.1 µM,[24],88%
same,remaining activity at 0.1 µM,[25],99%
same,remaining activity at 0.1 µM,[26],100%
same,remaining activity at 0.1 µM,[27],100%
same,remaining activity at 0.1 µM,[28],100%
same,remaining activity at 0.1 µM,[29],95%
"CN(C[C@@H](O)Cc1ccccc1)C(=O)c1cncc(C#Cc2cnn(C(F)F)c2)c1 [Example 2, (S)-5-((1-(difluoromethyl)-1H-pyrazol-4-yl)ethynyl)-N-(2-hydroxy-3-phenylpropyl)-N-methylnicotinamide]",remaining activity at 0.1 µM,[1]; PDGFRB,100%
same,remaining activity at 0.1 µM,[2]; GRK2,96%
same,remaining activity at 0.1 µM,[3]; AURKA,100%
same,remaining activity at 0.1 µM,[4]; MLK2,66%
same,remaining activity at 0.1 µM,[5]; ERN1,100%
same,remaining activity at 0.1 µM,[6]; KIT(D816H),100%
same,remaining activity at 0.1 µM,[7]; GRK4,100%
same,remaining activity at 0.1 µM,[8]; CDK2,100%
same,remaining activity at 0.1 µM,[9]; YANK2,100%
same,remaining activity at 0.1 µM,[10]; ROCK2,100%
same,remaining activity at 0.1 µM,[11]; LZK,99%
same,remaining activity at 0.1 µM,[12]; MLK3,95%
same,remaining activity at 0.1 µM,[13]; LATS1,100%
same,remaining activity at 0.1 µM,[14]; MRCKB,95%
same,remaining activity at 0.1 µM,[15]; TNIK,100%
same,remaining activity at 0.1 µM,[16]; TXK,100%
same,remaining activity at 0.1 µM,[17]; ADCK4,100%
same,remaining activity at 0.1 µM,[18]; RIOK2,95%
same,remaining activity at 0.1 µM,[19]; MAP4K5,87%
same,remaining activity at 0.1 µM,[20]; PCTK1,91%
same,remaining activity at 0.1 µM,[21]; HASPIN,86%
same,remaining activity at 0.1 µM,"[22]; EGFR(L858R,T790M)",83%
same,remaining activity at 0.1 µM,[23]; ANKK1,100%
same,remaining activity at 0.1 µM,[24]; NIK,84%
same,remaining activity at 0.1 µM,[25]; SNARK,99%
same,remaining activity at 0.1 µM,[26]; MAPKAPK2,100%
same,remaining activity at 0.1 µM,[27]; SRPK1,100%
same,remaining activity at 0.1 µM,[28]; YES,100%
same,remaining activity at 0.1 µM,[29]; MAP3K2,99%
